Test results taken from patent US20060228313A1, “Method of cosmetic depigmentation care by applying at least one aurone” (Coletica, priority 2005, published 2006).

What was measured:
[1] = in vivo; settings: both sexes, rat, po
Method: (§1) Toxicology tests were carried out on the compound obtained according to Example 9 incorporated at 10% in a 0.5% xanthan gum, by an ocular evaluation in the rabbit, by the study of the absence of abnormal toxicity by single oral administration in the rat and by the study of the sensitizing power in the guinea pig.
(§2) The preparations described were administered in one batch orally at the dose of 5 g/Kg of body weight, to 5 male rats and 5 female rats according to a protocol inspired from the Directive of the OECD No. 401 of Feb. 24, 1987 and adapted to cosmetic products. The LD0 and LD50 are found to be greater than 5,000 mg/Kg. The preparations tested are therefore not classed amongst the preparations which are dangerous by ingestion.

[2] = tested on: rat; assay: in vivo; settings: both, po
Method: as §1, §2

[3] = tested on: eye of rabbits; assay: Evaluation of the ocular irritation in the rabbit (OECD 405); type: in vivo; settings: compound at 10% in a 0.5% xanthan gum, instilled pure, 0.1 ml
Method: as §1
The preparations described above were instilled pure and in one batch at the rate of 0.1 ml in the eye of three rabbits according to the method recommended by the directive of the OECD NO. 405 of Feb. 24, 1987, in relation to the study of “the acute irritant/corrosive effect on the eyes”.

[4] = tested on: guinea pig; assay: Skin sensitisation potential in the guinea pig, Magnusson and Kligmann maximization test (OECD 406); type: in vivo; settings: compound at 10% in a 0.5% xanthan gum
Method: as §1
The preparations described are subjected to the maximization test described by Magnusson and Kligmann, a protocol which is in agreement with the directive line No. 406 of the OECD.

[5] = target: T1, Human tyrosinase (Homo sapiens, UniProt P14679); assay: Inhibition of human tyrosinase in a monolayer after application of the actives on normal human melanocytes; type: cell-based; settings: for Inhibition of human tyrosinase after application on normal human melanocytes, percentage inhibition: 24 hours; for Inhibition of human tyrosinase on normal human melanocytes, result in words: model of Example 15
T1 construct: Normal human melanocytes (originating from abdominal plasty) are sown in a 24-well plate; endogenous in cells; host or cells: normal human melanocytes (abdominal plasty; donors of light, brown and black phototype)
T1 sequence (P14679 19-529): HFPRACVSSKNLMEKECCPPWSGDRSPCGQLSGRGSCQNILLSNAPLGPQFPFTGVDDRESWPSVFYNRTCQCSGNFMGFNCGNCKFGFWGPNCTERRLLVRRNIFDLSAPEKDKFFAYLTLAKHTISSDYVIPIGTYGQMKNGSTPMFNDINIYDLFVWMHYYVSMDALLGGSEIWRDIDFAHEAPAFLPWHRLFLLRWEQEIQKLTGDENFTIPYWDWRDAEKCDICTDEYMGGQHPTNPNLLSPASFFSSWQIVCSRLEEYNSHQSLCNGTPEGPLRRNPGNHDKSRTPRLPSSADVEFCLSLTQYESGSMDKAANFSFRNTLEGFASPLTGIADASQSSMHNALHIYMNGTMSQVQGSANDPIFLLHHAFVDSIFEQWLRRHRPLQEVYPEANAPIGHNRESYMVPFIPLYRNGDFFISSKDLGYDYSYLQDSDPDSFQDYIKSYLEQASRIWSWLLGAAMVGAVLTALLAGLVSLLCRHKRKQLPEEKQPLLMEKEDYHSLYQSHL
Method: Normal human melanocytes (originating from abdominal plasty) are sown in a 24-well plate at the rate of 80,000 cells per well. They are cultivated up to confluence and the actives are applied for 24 hours in the culture media. After 24 hours, the media are removed and the melanocytes are picked up by mechanical action. An extraction is made by heat shock and the supernatants are then recovered and then incubated with MBTH (Sigma) and L-Dopa (Sigma). The OD at 490 nm is measured after 30 minutes, and the inhibition is of the tyrosinase is calculated by comparing the OD at 490 nm to the protein level (measured in each culture well) of the test with respect to the ratio: OD 490 nm/concentration of protein of the negative control (non-treated control). […]

[6] = tested on: normal human melanocytes; assay: Cytotoxicity on normal human melanocytes, PNPP determination; type: cell-based; settings: 24 hours
Method: The cytotoxicity of the actives is studied on normal human melanocytes in a 24-well plate by a determination with PNPP(P-nitrophenyl phosphate), a substance which is converted into p-nitrophenol by the intracellular acid phosphatases of viable cells.
The absorbance of p-nitrophenol at 405 nm is directly proportional to the number of viable cells.
The actives are tested at 2 different concentrations (10^−4 M and 10^−5 M) and are added to the culture medium and are incubated at 37° C. for 24 hours. The determination with PNPP is carried out on a cell mat and the results are expressed as a percentage viability with respect to the negative control (non-treated wells).

[7] = tested on: normal human melanocytes
Description: A study is made with molecules known in the literature for their depigmenting activity. These molecules are applied to the model described in Example 15 so as to compare their efficiency with respect to the aurones is described above.

Inhibition of human tyrosinase after application on normal human melanocytes, percentage inhibition ([5]; 10^−5M) | Molecule | Percentages viability on normal human melanocytes ([6]; 10^−5 M) | Percentages viability on normal human melanocytes ([6]; 10^−4 M) | also measured
 | COc1ccc(/C=C2\Oc3cc(O)cc(O)c3C2=O)cc1 [Example 9, (Z)-4,6-Dihydroxy-2-(4-methoxybenzylidene)benzofuran-3(2H)-one] |  |  | LD50 [1]: > 5000 mg/kg; LD0 [2]: greater than 5,000 mg/Kg; Ocular irritation [3]: non-irritant for the eyes; Skin sensitisation potential [4]: non-sensitizing by contact with the skin
14.19% | COc1cc(O)c2c(c1)O/C(=C\c1ccc(SC)cc1)C2=O [Example 6c] | 116.24% |  | 
 | O=C1/C(=C/c2ccc(O)cc2)Oc2cc(O)cc(O)c21 [Example 9b, (Z)-4,6-Dihydroxy-2-(4′-hydroxybenzylidene)benzofuran-3(2H)-one] | 128.39% | 90.31% | Inhibition of human tyrosinase on normal human melanocytes, result in words [5]: particularly active; Inhibition of human tyrosinase on normal human melanocytes, result in words ([5]; listed as compound 9b): high efficiency
4.52% | CCc1ccc(/C=C2\Oc3cc(O)cc(O)c3C2=O)cc1 [Example 7b] | 143.15% | 63.52% | 
 | O=C1O[C@H]([C@@H](O)CO)C(O)=C1OP(=O)(O)O [VitC PMG, reference compound] |  |  | Inhibition (%) of tyrosinase ([5]; tested at 0.03%): 2.93%; Inhibition (%) of tyrosinase ([5]; tested at 0.3%): 1.55%; Inhibition (%) of tyrosinase ([5]; tested at 3%): −3.49%; cytotoxicity [7]: no
0% | COc1cc(O)c2c(c1)O/C(=C\c1ccc(C#N)cc1)C2=O [Example 6d] | 119.36% | 85.65% | Inhibition of human tyrosinase after application on normal human melanocytes, percentage inhibition ([5]; 10^−4M): 2.31%
 | COc1cc(OC)c2c(c1)O/C(=C\c1ccccc1)C2=O [Example 5, (Z)-2-Benzylidene-4,6-dimethoxybenzofuran-3(2H)-one] | 98.55% | 83.1% | 
 | COc1cc(OC)c2c(c1)O/C(=C\c1ccc(SC)cc1)C2=O [Example 5c, (Z)-4,6-dimethoxy-2-(4′-methylthiobenzylidene)benzofuran-3(2H)-one] | 136.13% | 80.08% | 
 | COc1cc(OC)c2c(c1)O/C(=C\c1ccc(C#N)cc1)C2=O [Example 5d, (Z)-2-(4′-cyanobenzylidene)-4,6-dimethoxybenzofuran-3(2H)-one] | 96.51% | 98.93% | 
 | COc1cc(OC)c2c(c1)OCC2=O [Example 4, 4,6-Dimethoxybenzofuran-3(2H)-one] | 85.33% | 106.77% | 
9.69% | 4,6-Dihydroxybenzofuran-3(2H)-one (R1=OH) and 6-Hydroxybenzofuran-3(2H)-one (R1=H) [Example 2] | 126.09% | 103.84% | 
 | COc1cc(O)c2c(c1)O/C(=C\c1ccccc1)C2=O [Example 6, (Z)-2-Benzylidene-4-hydroxy-6-methoxybenzofuran-3(2H)-one] | 121.56% |  | 
